Numbered stars: 1 amine (or outer) side, 2 acyl side, 3 side chain; on linkers, the order of the positions; unused ones are H or OH. Bridge positions count the residues as written; N and C are the ends. Square brackets hold non-standard residues; d marks the D form. Peptide text beside a SMILES is read from it. I, II: the chains in the order shown. * marks the point of attachment. 5FAM = O=C1OC2(c3ccc(O)cc3Oc3cc(O)ccc32)c2ccc(C(=O)*)cc21; X1 = NC(=O)NC(COCCCN[*:1])(COCCCN[*:2])COCCCN[*:3]; Nle = CCCC[C@H](N)C(=O)O; AEEA = NCCOCCOCC(=O)O
Tests used:
[1] = system: freshly isolated neutrophils; assay: Flow cytometry of intracellular NAP fluorescence in isolated neutrophils; format: cell-based, human; conditions: A23187 10 µM activated neutrophils, NAP 5 µM; Dynasore Hydrate 30 µM, DPI 10 µM, Sivelestat 100 µM; 30 min 37 °C
Method: Neutrophils were suspended in PBS with divalent cations at a concentration of 10 × 10^6/mL. […] Incubation took place at 37 °C for 30 min and samples were shaken at 500 rpm using an orbital plate shaker (Thermomixer comfort, Eppendorf, Hamburg, Germany). Suspensions were then incubated with anti-human CD11b-APC (1:100 dilution, Clone ICRF44, Biolegend, CA, USA) at 22 °C for 30 min at 500 rpm before the application of NAP to a final concentration of 5 µM for 15 min at 22 °C and 500 rpm. Cells were washed in PBS without divalent cations at 350 g for 5 min at room temperature using a microtube centrifuge (Biofuge fresco, Heraeus, Hanau, Germany) and reconstituted in 175 µL PBS without divalent cations. Samples were loaded onto a 96 round-bottomed well plate (Corning).
Flow cytometry was performed using an Accuri C6 flow cytometer and BD CSampler software (both Becton–Dickinson, NJ, USA). Compensation beads and single stain controls were used where appropriate. […] The cytometer was thresholded on forward scatter to eliminate debris. The cytometer was aligned monthly using Calibrite 3, APC and 8 peak beads (Becton–Dickinson) to calibrate scatter and fluorescence parameters.
Data analyses were performed using Flowjo v10.0.8r1 (Treestar, Ashland, OR, USA). Samples were repeated in duplicate for each individual donor and pooled to yield a point estimate for each condition and each donor. The point estimates from different donors were pooled to yield an overall mean point estimate for each condition ± SE.

erythrocytes = assay: Erythrocyte haemolysis (membrane toxicity); format: cell-based, human; conditions: NAP 5 µM or working concentration × 2, 1 h 37 °C, absorbance 350 nm, vs Triton X-100 0.4%
Method: (§1) Membrane toxicity of NAP was assessed using erythrocyte haemolysis. Isolated erythrocytes remaining after leukocyte separation were diluted 1:5 with PBS without cations and 50 µL of this red cell suspension was added to wells of a 96-well plate. Working concentration of NAP (5 µM), or working concentration × 2, was added to the relevant well. Positive control wells contained Triton X-100 (0.4%, Sigma-Aldrich) and negative control wells contained PBS w/o only. The 96-well plate was incubated for one hour at 37 °C in a humidified environment. Following incubation, 180 µL of PBS without cations was added to each well and the plate was centrifuged at 2500 rpm for 10 min. 100 µL of supernatant from each well was removed and aliquoted into clean wells. Absorbance at 350 nm was recorded using a plate reader. Triplicate repeats were pooled to yield an overall mean point estimate ± SEM of haemolysis that was expressed as a percentage of the positive control. For neutrophil toxicity freshly isolated human peripheral neutrophils were resuspended at 10 × 10^6 cells/mL in IMDM with 10% autologous serum and cultured for 18hrs ± 5 µM NAP at 37 degrees in a 5% CO2 incubator. […] Duplicate repeats were pooled to yield an overall mean point estimate ± SEM of apoptosis and necrosis that was expressed as a percentage of total cells.

[2] = GLP AMES mutagenicity test, microsuspension-modified method
rats = assay: GLP toxicology study, delivery via the trachea; format: in vivo, rat
Method: NAP was delivered via the trachea to rats in a Contract Research Organization Good Laboratory Practice (GLP) toxicology study at approximately 700 times the human dose. NAP (100 µg) was instilled and rats underwent necroscopy at 3 and 15 days after delivery. […] The release specifications for NAP drug substance and drug product are shown in Supplementary tables S3 and S4.
All experiments using human volunteers were performed following approval from the appropriate regional ethics committee (REC) and informed consent was obtained from each participant or their personal legal representative for adults with incapacity (in accordance with the Adults with Incapacity (Scotland) Act 2000). BALF for alveolar macrophages: (East of Scotland Research Ethics Committee 1 no: 07/S1102/20), blood for assessment of leucocyte populations (Lothian Research Ethics Committee no: 08/S1103/38), and first-in-human assessment of probe performance and safety (Scotland A Research Ethics Committee no: 12/SS/0004, EudraCT 2011-006169-17, NCT01532024). All methods were performed in accordance with the relevant guidelines and regulations. Animal toxicology was conducted in compliance with UK Good Laboratory Practice Regulations by a third party contract research organization (Covance Laboratories Ltd, Harrogate, UK) under Covance UK Home Office License for toxicology. […]

[3] = target: T1, human neutrophil elastase (HNE) (Homo sapiens, UniProt P08246); assay: Plate reader assessment of probe de-quenching with purified HNE; format: biochemical
T1 construct: purchased Elastin Products Company, MO, USA
T1 sequence (P08246 30-267): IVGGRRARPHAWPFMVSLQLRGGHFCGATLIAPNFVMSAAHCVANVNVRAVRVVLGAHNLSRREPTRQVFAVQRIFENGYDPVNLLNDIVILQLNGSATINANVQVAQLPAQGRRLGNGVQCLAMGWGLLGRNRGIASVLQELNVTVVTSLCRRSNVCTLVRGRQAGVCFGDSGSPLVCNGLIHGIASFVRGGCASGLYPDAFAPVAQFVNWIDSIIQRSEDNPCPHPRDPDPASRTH
Method: To generate an emission spectrum, NAP was excited at 430 nm to ensure the spectrum could be visualized to the x-axis. Excitation/absorbance spectra were obtained with NAP diluted to 5 µM in PBS or freshly prepared pH buffer. Purified HNE (Elastin Products Company, MO, USA) and purified proteinase 3 (Sigma-Aldrich, Poole, UK) were made up according to the manufacturer’s instructions to yield appropriate stock concentrations. Stock preparations of purified enzyme were prepared according to manufacturers’ instructions and subsequently diluted appropriately with Phosphate Buffered Saline (PBS, Thermoscientific, MA, USA) and NAP to achieve a final volume of 200 µL per condition and a final NAP concentration of 5 µM. Solutions were prepared directly into 96 well plates (Corning, NY, USA) on ice, with or without the human neutrophil elastase inhibitor Sivelestat (ONO-5046, 100 µM, Tocris, Bristol, UK). Plates were subsequently incubated at 37 °C with fluorescent parameters recorded every minute for 1 h (Fig. 1C, excitation 488 nm, emission 525 nm). All fluorescence parameters were recorded using a microplate reader (Synergy H1 hybrid reader, BioTek, Potton, UK,).

[4] = system: freshly isolated human peripheral neutrophils; assay: Neutrophil toxicity (Annexin V / propidium iodide flow cytometry); format: cell-based; conditions: 5 µM NAP, 18 h, 37 °C, IMDM with 10% autologous serum, Annexin V/PI
Method: as §1

[5] = system: isolated healthy human neutrophils; assay: Confocal time course of primed neutrophils activated with fMLF; format: cell-based; conditions: co-incubation with Sivelestat 100 µM; Cytochalasin B primed, fMLF 500 nM, NAP 5 µM
Method: Where stated commercial stains were used in accordance with the manufacturer’s instructions or applied to a suspension of the relevant cells in eppendorfs at a concentration of 1:1000 from delivered stock for 10 min at 37 °C and 500 rpm using an orbital plate shaker before undergoing one wash in PBS without divalent cations as described above. 8 well Lab-Tek II confocal chambers (VWR, PA, USA) were coated in fibronectin (1 µg/ml, Sigma-Aldrich) for 10 min at 37 °C. Wells were then washed twice before the addition of the appropriate cell suspension. Cells were typically seeded at a concentration of 0.5—1 × 10^6/mL. […]
A laser scanning confocal imaging system (LSM510; Carl Zeiss, Jena, Germany), incorporating an upright Axioskop FS2 microscope (× 63 objective) was used for image acquisition. […] Fluorescein based dyes were excited with a dedicated 488 nm laser line, with emitted light detected at 500–530 nm. Syto 82 nuclear, calcein cytoplasmic dyes and CellMask Orange plasma membrane stain (all Invitrogen, Thermoscientific) were excited with a dedicated 543 nm line, with emitted light detected at 560–600 nm. Syto 60 (Invitrogen, Thermoscientific) stain was excited with a dedicated 633 nm line, with emitted light detected at 650–680 nm. PKH labelled bacteria were excited with a dedicated 633 nm line with emitted light detected at 650–705 nm. […]

[6] = Change in fluorescence with pH (plate reader); format: physicochemical; conditions: carboxyfluorescein 15 µM, freshly made pH buffer; n = 1, in triplicate

In the case of `c1ccc2c(c1)[I+]c1ccccc1-2` [DPI, Diphenyleneiodonium], the “effect of inhibitor on intracellular NAP fluorescent signal (flow cytometry)” value (“effect of inhibitor … (flow cytometry)” for short) [1] is reported as “reduced the overall mean fluorescent intensity”.

For `O.O=C(N/N=C/c1ccc(O)c(O)c1)c1cc2ccccc2cc1O` [Dynasore Hydate, Dynasore Hydrate], the “effect of inhibitor … (flow cytometry)” value [1] was “abrogated”.

In the case of `CCCC[C@H](NC(=O)[C@@H](NC(=O)[C@H](CCC(=O)O)NC(=O)[C@H](CCC(=O)O)NC(=O)COCCOCCNC(=O)c1ccc2c(c1)C(=O)OC21c2ccc(O)cc2Oc2cc(O)ccc21)[C@@H](C)CC)C(=O)N[C@@H](CCCNC(=N)N)C(=O)N[C@@H](CCCNC(=N)N)C(=O)NCCCOCC(COCCCNC(=O)[C@H](CCCNC(=N)N)NC(=O)[C@H](CCCNC(=N)N)NC(=O)[C@H](CCCC)NC(=O)[C@@H](NC(=O)[C@H](CCC(=O)O)NC(=O)[C@H](CCC(=O)O)NC(=O)COCCOCCNC(=O)c1ccc2c(c1)C(=O)OC21c2ccc(O)cc2Oc2cc(O)ccc21)[C@@H](C)CC)(COCCCNC(=O)[C@H](CCCNC(=N)N)NC(=O)[C@H](CCCNC(=N)N)NC(=O)[C@H](CCCC)NC(=O)[C@@H](NC(=O)[C@H](CCC(=O)O)NC(=O)[C@H](CCC(=O)O)NC(=O)COCCOCCNC(=O)c1ccc2c(c1)C(=O)OC21c2ccc(O)cc2Oc2cc(O)ccc21)[C@@H](C)CC)NC(N)=O` (stereo partly drawn) [NAP] (I: {5FAM-AEEA}-EEI[Nle]RR / II: {5FAM-AEEA}-EEI[Nle]RR / III: {5FAM-AEEA}-EEI[Nle]RR; linker I:C-II:C-III:C via X1), the red cell haemolysis (erythrocytes) is reported as “did not cause”, the mutagenicity [2] is reported as “no mutagenicity” and the “local or distant organ toxicity” value (rats; NAP 100 µg instilled via the trachea (approximately 700 times the human dose), necroscopy at 3 and 15 days) is reported as “No local or distant organ toxicity was observed”. For the same compound, the “haematological or other metabolic consequences” value (rats; NAP 100 µg instilled via the trachea, 3 and 15 days) was “no haematological or other metabolic consequences”, the “increase in fluorescence compared to the resting state” value ([3]; NAP 5 µM in PBS with purified HNE, 37 °C, read every minute for 1 h, ex 488 nm / em 525 nm, three independent experiments) was roughly 350% and the neutrophil necrosis [4] was “did not cause”.

For `CC(C)(C)C(=O)Oc1ccc(S(=O)(=O)Nc2ccccc2C(=O)NCC(=O)O)cc1` [Sivelestat], the “effect of inhibitor … (flow cytometry)” value [1] was “abrogated”, the “effect of inhibitor on intracellular NAP fluorescent signal (confocal)” value [5] was “abrogated” and the “effect of inhibitor on cleavage of NAP by HNE” value ([3]; Sivelestat 100 µM, NAP 5 µM, 100 nM HNE) was “completely abrogated”.

In the case of carboxyfluorescein, the “change in fluorescence with pH” value [6] is reported as “expected increase in fluorescence as H^+ concentration falls”.

Reference: article PMC7806726, “Activated neutrophil fluorescent imaging technique for human lungs” (Scientific Reports, 2021)
